Experimental data reported in PMC11302733, “Bioactivity of synthetic peptides from Ecuadorian frog skin secretions against Leishmania mexicana, Plasmodium falciparum, and Trypanosoma cruzi” (Microbiology Spectrum, 2024).
Where two headings read alike, the source gives them in different places. No end group written: not given here.

Tests used:
[1] = tested on: T. cruzi trypomastigotes (Tulahuen, Tula β-gal); format: cell-based, Trypanosoma cruzi; conditions: trypomastigotes (Tulahuen, Tula β-gal, 4 h)
Procedure: T. cruzi trypomastigote culture was performed as reported previously ([35], [36]). LLC-MK2 cell monolayers were infected with 5 × 10^5 trypomastigotes in 10-mL DMEM supplemented with 2% FBS and 1% penicillin/streptomycin (DMEM-2), for 48 h at 37°C, 5% CO2 and 98% relative humidity. Parasites were subsequently removed by rinsing with PBS, and 10-mL fresh DMEM-2 was added. Five days post-infection, trypomastigotes were harvested from the culture for the trypanocidal activity assays.
Wells containing parasites not exposed to peptides and treated with 0.1% Triton served as 100% lysis reference. Plates were incubated in the dark at 37°C and 5% CO2 for 4 h, and absorbance was read at 590 nm. Experiments were performed in duplicate wells. Three independent assays were performed for each peptide.

[2] = tested on: intracellular T. cruzi amastigotes (Tula β-gal) in LLC-MK2 cells; conditions: read-out: IC50 T. cruzi amastigotes, with 95% confidence interval, 96 h, CPRG read-out, three independent assays
Procedure: Leishmania mexicana strain M379, P. falciparum reference clones NF54 (chloroquine-sensitive, isolated from a patient at an airport in the Netherlands) and TM90C2B (C2B) (chloroquine, mefloquine, and atovaquone resistant, from Thailand) and T. cruzi, β-galactosidase-expressing, Tulahuen strain parasites (C4 clone; +lacZ, henceforth abbreviated as Tula β-gal) ([33]) were employed in the study.
LLC-MK2 cells, 2 × 10^4/well, were seeded and allowed to attach overnight to 96-well plates. he medium was removed and cells were infected with 1 × 10^5 parasites in DMEM-2 for 24 h. Cell monolayers were washed four times with PBS, and serial dilutions of AMPs (100.0- to 0.195-µM range) in DMEM-2 without phenol red were added to duplicate wells. Wells containing infected cells not exposed to peptides served as parasite growth reference. The infection was allowed to proceed for 96 h. Subsequently, lysis solution was added to each well to a final concentration of 100-µM CPRG and 0.1% Triton and incubated for 2 h. Absorbance was measured at 590 nm ([41]). Three independent assays were performed for each peptide.
Half-maximal inhibitory concentration (IC50) and half-maximal cytotoxic concentration (CC50) with 95% confidence intervals in GraphPad Prism software (v.9.2.0., non-linear regression with curve fitting [model: log (inhibitor) vs response (three parameters)]. The selectivity index (SI) was determined by dividing the CC50 value of RAW 264.7 cells by the IC50 of the parasites.

[3] = tested on: Leishmania mexicana strain M379 promastigotes; format: cell-based; conditions: for SI L. mexicana: RAW 264.7 CC50/parasite IC50; for IC50: promastigotes 1 × 10^6/well, SDM without FBS, 48 h at 25°C, MTT, three independent assays in triplicate, read-out: IC50 L. mexicana, with 95% confidence interval
Procedure: L. mexicana promastigote stock cultures were maintained in USHMARU biphasic medium [blood agar slant overlayed with 3 mL of Schneider’s Drosophila medium (SDM), containing 10% fetal bovine serum (FBS)] at 25°C. Promastigotes were collected by centrifugation and washed with PBS, and culture medium was replaced every 2 days. Every 4 days, the parasites were transferred to a new tube and to a 25-cm^2 tissue culture flask containing 10 mL of monophasic medium (SDM + 10% FBS + 1% penicillin/streptomycin). If present, rosettes were disrupted by passing the culture through 10-mL syringes with 27G needles.
Parasite viability was measured colorimetrically via 3-(4,5-dimethylthiazol-2-yl)-2,5-diphenyltetrazole bromide tetrazolium salt (MTT) reduction. Promastigotes were placed in 96-well conical-bottom plates in SDM + 1% penicillin/streptomycin without FBS, at a density of 1 × 10^6/well. Untreated parasites (growth control), 1-µM amphotericin B diluted in DMSO (positive control), 0.25% DMSO (negative control), and each of the peptides at a final concentration of 0.1, 0.5, 1.0, 5.0, and 10.0 µM were included in triplicate wells. Plates were incubated at 25°C for 48 h. Subsequently, 20-µL 10% MTT was added per well. Plates were incubated for 2 h in the dark at the same temperature and centrifuged at 4,000 rpm for 10 min, and the supernatant was removed. Formazan crystals were diluted with 50-µL DMSO, and absorbances (A570–630) were read ([37], [38]). Three independent assays were performed for each peptide.

[4] = Cytotoxicity, resazurin reduction assay; format: cell-based, murine; conditions: mouse
Procedure: (§1) RAW 264.7 murine macrophages and Macaca mulatta kidney cells (LLC-MK2) were cultured in 75-cm^2 flasks with 10-mL Dulbecco’s Modified Eagle’s Medium (DMEM) supplemented with 10% fetal bovine serum and 1% penicillin/streptomycin (DMEM-10) medium. Culture conditions were 37°C, 5% CO2, and 95% relative humidity. RAW 264.7 cells were rinsed with PBS, detached with a cell scraper, and passaged every 96 h. LL-MCK2 were subcultured weekly, at 1:4 ratio, via trypsinization.
(§2) The toxicity of the studied AMPs over LLC-MK2 and RAW 264 cells was determined via a resazurin (RZN) reduction assay ([42]). Briefly, 2 × 10^4 cells/well were seeded in DMEM-10 in 96-well plates. Twenty-four hours later, culture medium was removed, and 10 twofold serial dilutions (100.0–0.195 µM) of each AMP in 200-µL volume were placed in duplicate wells. The plate was placed on the incubator in the dark at 37°C and 5% CO2. Ten microliters of 3-mM RZN sodium salt in PBS per well was added, and the plate was incubated for 24 h. Finally, the fluorescence was measured (530- to 560-nm excitation and 590-nm emission wavelengths). Three independent assays were performed for each peptide.

[5] = Cytotoxicity, resazurin reduction assay; format: cell-based; conditions: Macaca mulatta, LLC-MK2 cells (Macaca mulatta kidney cells), 100.0–0.195 µM, three independent assays in duplicate wells, read-out: IC50 (CC50) Llc-mk2, with 95% confidence interval
Procedure: as §1, §2

[6] = tested on: P. falciparum TM90C2B (C2B); format: cell-based, Plasmodium falciparum; conditions: TM90C2B (C2B, 72 h)
Procedure: (§3) P. falciparum was cultured in human O + erythrocytes in Roswell Park Memorial Institute medium 1640, supplemented with 25-mM HEPES buffer, 10-mM glucose, 2-mM glutamine, and O + human plasma. Parasites were cultured under low-oxygen atmosphere (5% O2, 5% CO2, and 90% N2) ([34]) and maintained in fresh human erythrocytes suspended at 4% hematocrit in complete medium at 37°C. Stock cultures were subpassaged every 3–4 days by transfer of infected red cells to a flask containing complete medium and uninfected erythrocytes.
(§4) In vitro sensitivity to peptides was tested using a previously described SYBR green I fluorescence-based method ([39], [40]). Assays were set up in 96-well plates with twofold peptide dilutions in 150-μL total volume and 1.5% (vol/vol) final red blood cell concentration. Stock solutions of each peptide were prepared in DMSO. Experiments were started at an initial parasitemia of 0.5% (80% rings) synchronous parasite-infected red blood cells. Plates were incubated for 72 h at 37°C in an atmosphere of 5% CO2, 5% O2, and 90% N2. The SYBR green I dye-lysis mixture (l:100) was added to the parasites in black plates that were incubated at room temperature for an hour in the dark. The plates were then read using a fluorescence plate reader at excitation and emission wavelengths of 480 and 535 nm, respectively. Experiments were performed in duplicate wells. Three independent assays were performed for each peptide.

P. falciparum NF54 = format: cell-based, Plasmodium falciparum; conditions: NF54, 72 h
Procedure: as §3, §4

red blood cell = format: cell-based
Procedure: Hemolytic activity was determined using 200 µL of 4% red blood cell solution incubated with 200 µL of serial dilutions peptide (0.4–209.4 µM) in phosphate-buffered saline (PBS) 1× (five replicates). Negative controls contained PBS instead of peptide; positive controls contained 2% vol/vol Triton X-100 to yield complete hemolysis. Assays were incubated at 37°C for 2 h, and samples were centrifuged at […] for 5 min. Two-hundred microliters of supernatant was transferred to a 96-well plate and absorbance was measured at 550 nm.

[7] = tested on: Staphylococcus aureus ATCC 29213; format: cell-based; conditions: ATCC 29213, 16 h
Procedure: (§5) The minimum inhibitory concentration (MIC) of CZS-4 over Escherichia coli American Type Culture Collection (ATCC) 25922, Staphylococcus aureus ATCC 29213, and Candida albicans ATCC 10231 was determined, as previously described ([28], [30], [31]). In brief, overnight cultures of each microorganism were subcultured in Muller-Hinton Broth (MHB) until reaching 1 × 10^6 CFU/mL for bacteria and 1 × 10^5 CFU/mL for yeast. Peptide serial dilutions in dimethylsulfoxide (DMSO), ranging from 0.4 to 209.4 µM were prepared, and 2 µL of each peptide dilution was added to 198-µL diluted bacterial or yeast culture in a 96-well sterile plate (with five replicates). Sterile MHB and microbial culture with DMSO were negative controls. Plates were incubated for 16 h at 37°C. Microorganism growth was measured at 600 nm.

[8] = tested on: Escherichia coli ATCC 25922; format: cell-based; conditions: ATCC 25922, 16 h
Procedure: as §5

[9] = tested on: Candida albicans ATCC 10231; format: cell-based; conditions: ATCC 10231, 16 h
Procedure: as §5

[10] = RAW 264.7 macrophages, resazurin reduction, 24 h, 100.0–0.195 µM, three independent assays in duplicate wells, read-out: IC50 (CC50) Raw 264.7, with 95% confidence interval

Row | Substance | IC50 [1] | IC50 [2] | SI L. mexicana [3] | IC50 [3] | CC50 at 24 h [4, 10] | CC50 at 24 h [5] | IC50 [6] | IC50 (P. falciparum NF54) | Hemolysis (red blood cell; 128 µM) | Hemolysis (red blood cell; 2 h) | Hemolysis (%) (red blood cell; 2 h, 13.09 µM) | Hemolysis (%) (red blood cell; 2 h, 26.18 µM) | Hemolysis (%) (red blood cell; 2 h, 104.73 µM) | Hemolysis (%) (red blood cell; 2 h, 209.46 µM) | MIC [7] | MIC [8] | MIC [9] | CC50 at 24 h [4]
1 | GFLDIVKGVGKVALGAVSKLF-NH2 [CZS-1] | 2.87 µM | 16.7 µM | 4.41 | 0.54 µM | 2.38 µM | 3.17 µM | 16.8 µM | 31.2 µM | – | – | – | – | – | – | – | – | – | –
2 | GFLDVIKHVGKAALSVVSHLINE-NH2 [CZS-4] | 1.55 µM | 30.7 µM | 532.89 | 0.09 µM | 48 µM | 70.7 µM | 4.87 µM | 13.9 µM | 13% | less than 9.1% | 1.2% | 9.1% | 28.5% | 36.3% | 26.18 µM | 13.09 µM | 52.36 µM | –
3 | GFLDTLKNIGKTVGRIALNVLT-NH2 [PTS-1] | 1.42 µM | 30.2 µM | 25.20 | 0.1 µM | 2.52 µM | 80.1 µM | 24.9 µM | 52.6 µM | – | – | – | – | – | – | – | – | – | –
4 | ASWKVFLKNIGKAAGKAVLNSVTDMVNQ-NH2 [DRS-SP2] | – | – | 5.15 | 0.61 µM | – | – | 15.3 µM | 12.1 µM | – | – | – | – | – | – | – | – | – | 3.14 µM
5 | GFLDVLKGVGKAALGAVTHLINQ-NH2 [CZS-16] | 18.7 µM | 38.3 µM | – | – | 4.4 µM | 5.59 µM | 34.4 µM | 36.8 µM | – | – | – | – | – | – | – | – | – | –
